Results published in patent publication US20160033528A1, “Methods for Selecting Peptides that Bind to Disease Specific Antibodies, Disease Specific Peptides and Uses Thereof” (The Regents of the University of California, priority 2014, published 2016).

Key:
[1] = system: CD patient IgG antibodies; test: Individual clone reactivity with individual patient sera by flow cytometry (second-generation PEQ peptides); assay type: binding, human; conditions: CD case sera n=18 not used for screening
Experimental: Depletion of E. coli binding serum antibodies. Diluted sera were depleted of E. coli binding antibodies prior to library screening and clone reactivity assays. To remove E. coli binding antibodies, an overnight culture of cells expressing the library scaffold (eCPX) with or without the v114 peptide were diluted (1:50) in fresh media and grown separately until the optical density at 600 nm (OD600) was ˜0.6. Cells were induced for 1 hr at 37° C., and then 2×10^9 cells from each culture were combined and centrifuged at 3000 ref for 5 min. Cells were resuspended in PBS-T (1 mL) containing 100× diluted pooled or individual sera. Samples were incubated overnight at 4° C. on an orbital shaker at 20 rpm. After incubation, samples were centrifuged at 3000 ref for 5 min (2×), and the depleted serum supernatant was recovered and stored at 4° C. for up to three days before use.
For flow cytometric analysis and sorting, induced cells corresponding to 5× the estimated remaining clonal diversity were incubated with 1:100-1:200 dilution of pooled sera for 45 min at 4° C. followed by centrifugation and removal of unbound supernatant (3× washing). The pellet was then resuspended in the respective 1:500 biotinylated goat anti-human secondary antibody (IgA/IgG/IgM) in 1× PBST at 4° C. for 45 min followed by centrifugation and removal of unbound supernatant (2× washing). For tertiary labeling, the pellet resuspended in 15 nM SA-PE in 1× PBST at 4° C. for 45 min, followed by another wash via centrifugation and resuspension (3× washing) in ice-cold PBST at a volume between 10^7 and 10^8 cells/mL. Resuspended cells were analyzed using a FACSAria cell sorter (Becton Dickinson) using 488-nm excitation. After sorting, retained cells were amplified for further rounds of sorting by overnight growth and plated to isolate single clones. […]
In vitro evolution of CD specific peptides. […] To assess the diagnostic sensitivity and specificity of individual peptides, the reactivities of one representative clone from each motif group was measured using CD case (n=18) and non-CD control sera (n=5) not used for screening. […]

anti-CSE antibodies = test: CSE reactivity in matched CD sera at diagnosis and after one year of gluten-free diet; assay type: binding, human; conditions: 11 CD cases
From the text: Active CD patients (n=54) ranging in age from 18-74 had small intestinal biopsies with a Marsh 3a-3c histological lesion, tested seropositive for transglutaminase (TG2) and endomysium (EMA) autoantibodies, and were Caucasian. Human lymphocyte antigens (HLA)-typing for the presence of DQ2 or DQ8 alleles was available for 42/54 CD sera.
Directed evolution pooled clone & individual patient single clone reactivity assays. To compare the reactivity of consensus epitopes from each generation, overnight cultures of individual clones within a consensus epitope family (4-5 clones/family) were diluted (1:50) in fresh media and grown until the OD600 was between 0.5 and 0.7. Cultures of each individual Clones were induced for 45 min, and 10^6 cells from each culture were pooled together. Pooled consensus epitope families were assayed for binding to case and control group sera (3 subjects/group) by flow cytometry. […] Cells expressing the eCPX scaffold without a peptide insert were used as a negative (background) control. […]
To determine prevalence of anti-CSE antibodies in CD and control subjects, CD and non-CD sera (n=231) were assessed for reactivity to the CSE peptide: MDVRCRDSFVYQCHVGT (SEQ ID NO: 2). […]

[2] = system: serum IgA of patients with CD; conditions: cited from earlier work

Sequence: GQGQAFPEQGSVPIN [A/VFPEQ motif peptide, focused library 1]
- CD sera the peptide reacted with (reactive/tested) [1]: 14/18

Sequence: MDVRCRDSFVYQCHVGT [CSE peptide]
- patients with reduced, but non-zero, levels of epitope reactivity after a GFD (anti-CSE antibodies; after one year on a gluten-free diet): 8/11
- active CD patients reactive (anti-CSE antibodies; sera at time-of-diagnosis): 10/11

Sequence: VAWTMGPEQPLVRAL [PEQPL motif peptide, focused library 1]
- CD sera the peptide reacted with (reactive/tested) [1]: 11/18

Sequence: VVKGGSSSLGW [celiac peptide, synthetic peptide of Giovanna et al., PLOS Med. 2006]
- individual patients with CD whose serum IgA specifically recognized the peptide [2]: 68%

Sequence: VWDRGVPEQMFPRKG [PEQxFP motif derived peptide, focused library 1]
- CD sera the peptide reacted with (reactive/tested) [1]: 18/18
